“And” between values parts separate entries of the source, which are not always exact repeats. Equal entries are not always repeated.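 All cell lines were grown in 96-well plates and treated with compound for 48 hours. The concentration for 50% growth inhibition is given as GI50.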 The source made the active and inactive calls. No stated cut-off is given here; in the data, active = GI50 up to about 1.1 µM and inactive = higher.
Experiments:
Experiment in all cases: NCI-60 cell line screen, 48 h
DLD-1 = tested on: DLD-1
DMS-114 = tested on: DMS-114
DMS-273 = tested on: DMS-273
HOP-18 = tested on: HOP-18
KM-20L2 = tested on: KM-20L2
LXFL 529 = tested on: LXFL 529
RXF 631 = tested on: RXF 631
SNB-78 = tested on: SNB-78
XF498 = tested on: XF498

Compound	GI50 (DLD-1)	GI50 (DMS-114)	GI50 (DMS-273)	GI50 (HOP-18)	GI50 (KM-20L2)	GI50 (LXFL 529)	GI50 (RXF 631)	GI50 (SNB-78)	GI50 (XF498)
O=C1C=Cc2c(-c3ccccc3)oc3cccc1c23	13.2 µM (inactive)	17.8 µM (inactive)	5.98 µM (inactive)	15 µM (inactive)	27.2 µM (inactive)	22.8 µM (inactive)	10.4 µM (inactive)	48.3 µM (inactive)	7.28 µM (inactive)
C1CCN(c2nc(=[N+]3CCCCC3)ss2)CC1	> 100 µM (inactive)	31.1 µM (inactive)	> 100 µM (inactive)	> 100 µM (inactive)	> 100 µM (inactive)	> 100 µM (inactive)	> 100 µM (inactive)	> 100 µM (inactive)	> 100 µM (inactive)
CCCCCCC(C)CCCCCCCCCCC(=O)O (configuration not stated)	> 100 µM (inactive)	> 100 µM (inactive)	> 100 µM (inactive)	> 100 µM (inactive)	> 100 µM (inactive)	> 100 µM (inactive)	> 100 µM (inactive)		> 100 µM (inactive)
CCCCC(/C=N/NC(=N)N)CC.Cc1cc(O)c(C(C)C)cc1S(=O)(=O)O	> 100 µM (inactive)	24.5 µM (inactive)	38 µM (inactive)		45.7 µM (inactive)	70.8 µM (inactive)		84.7 µM (inactive)	
Cc1ccc(/C=C/C(=O)c2ccc(Cl)c(Cl)c2)cc1	> 100 µM (inactive)		> 100 µM (inactive)	63.1 µM (inactive)	> 100 µM (inactive)	> 100 µM (inactive)	> 100 µM (inactive)	> 100 µM (inactive)	> 100 µM (inactive)
O=C1CCNC(=O)NC1	> 100 µM (inactive)	> 100 µM (inactive)	> 100 µM (inactive)	> 100 µM (inactive)	> 100 µM (inactive)	> 100 µM (inactive)	> 100 µM (inactive)	> 100 µM (inactive)	> 100 µM (inactive)
Clc1ccc(C2N3CCCCC3[C@@H]3c4[nH]c5ccccc5c4CCN23)cc1 (some centres not stated)	56.8 µM (inactive)	37.3 µM (inactive)	42.2 µM (inactive)	> 100 µM (inactive)	30.7 µM (inactive)	38.1 µM (inactive)		37.8 µM (inactive)	64.4 µM (inactive)
Cc1ccccc1NC(=O)CC1C(=O)Nc2ccccc2[S+]1[O-] (configuration not stated)	> 100 µM (inactive)	> 100 µM (inactive)	> 100 µM (inactive)		> 100 µM (inactive)	> 100 µM (inactive)	93.8 µM (inactive)	> 100 µM (inactive)	96.6 µM (inactive)
COC(=O)[C@@H]1[C@H](O)[C@H](C)[C@H](O)[C@@](C)(O)/C=C\C=C(\C)C(=O)Nc2c(C)c(OC(C)=O)c3c(c2O)C(=O)C(C)=C2OCOC(=C23)/C(C)=C/[C@@](C)(O)[C@H](O)[C@@H](C)[C@H]1OC(C)=O	22.4 µM (inactive)	33.2 µM (inactive) and 624 nM (active)	> 100 µM (inactive) and 60 µM (inactive)	30.6 µM (inactive)	57.1 µM (inactive)	57.4 µM (inactive)		> 66.8 µM (inactive)	
COc1cc(/C=C/c2cccnc2)cc(OC)c1OC	> 100 µM (inactive)	> 100 µM (inactive)	> 100 µM (inactive)	53.1 µM (inactive)	> 100 µM (inactive)	92.7 µM (inactive)		> 100 µM (inactive)	> 100 µM (inactive)

— ChEMBL document CHEMBL1201862, “PubChem BioAssay data set” (2004)
